How the values were obtained:
[1] = tested on: human derived keratinocytes; assay: ROS detection in H2O2-treated human derived keratinocytes (Example 3: alpha-tocopherol, EGT, niacinamide); type: cell-based; conditions: alpha-tocopherol 0.001% as printed, EGT 0.01%, niacinamide 0.01%; for Fold Change, decrease in ROS generated in keratinocyte by antioxidant treatment (relative to untreated): vs F (0.1% DMSO + 0.3% H2O2); for % Decrease in ROS generated in keratinocyte by antioxidant treatment: 0.3 wt.% H2O2
Protocol: Hydrogen peroxide treated cells were then treated with: alpha-tocopherol, ergothioneine and niacinamide, respectively and in combination.
Cellular ROS/Superoxide Detection Assay Kit (Abcam—ab139476)

[2] = tested on: human derived keratinocytes; assay: ROS detection in H2O2-treated human derived keratinocytes (Example 2: alpha-tocopherol, EGT, sodium PCA); conditions: vs F (0.1 wt.% DMSO + 0.3 wt.% H2O2); alpha-tocopherol 0.001%, EGT 0.01%, Na PCA 0.01%; 30 min treatment
Protocol: Keratinocytes were treated with exogenous 0.3 wt. % hydrogen peroxide to induce reactive oxygen species (ROS) production. […] Changes in ROS production were assessed using a ROS Detection Assay Kit and fluorescence microplate reader.
Cell Culture Treatment • 500 uL of each treatment sample was directly applied to the 24-well plates and incubated for 30 mins. • Post incubation: each well was washed with the wash buffer (1×) provided. • 250 uL of green Fluorescent (GF) dye containing media (2.5 uL of GF dye/250 uL of media) was then added to each well and incubate for 60 mins. • Post incubation, Fluorescence was read on a microplate reader at 490/525.

Compound	Fold Change, decrease in ROS generated in keratinocyte by antioxidant treatment (relative to untreated) [1]	Fold Change, decrease in ROS generated in keratinocyte by antioxidant treatment (relative to untreated) [2]	% Decrease in ROS generated in keratinocyte by antioxidant treatment [1]
NC(=O)c1cccnc1 [Niacinamide, niacinamide]	0.24-fold fold decrease	–	–
Cc1c(C)c2c(c(C)c1O)CC[C@@](C)(CCC[C@H](C)CCC[C@H](C)CCCC(C)C)O2 [Alpha-tocopherol, alpha-tocopherol]	0.4-fold fold decrease	4.21-fold decrease	20.79%
C[N+](C)(C)[C@@H](Cc1c[nH]c(=S)[nH]1)C(=O)[O-] [EGT, Ergothioneine]	0.31-fold fold decrease	4.43-fold decrease	15.91%
O=C1CCC(C(=O)[O-])N1.[Na+] (stereo not drawn) [Na PCA, sodium pyrrolidone carboxylic acid]	–	2.25-fold decrease	25.75%
